Test results: patent publication US11919887B2, “Substituted tetrahydrofurans as modulators of sodium channels” (Vertex Pharmaceuticals Incorporated, priority 2019, dated 2024)
Where two headings read alike, the source gives them in different places.

Target: human Nav 1.8 (Homo sapiens, UniProt Q9Y5Y9)
Test: E-VIPR assay detecting and measuring Nav inhibition (HEK cells expressing truncated human Nav 1.8)
Assay type: cell-based
Conditions: read-out: IC50
Source text: Sodium ion channels are voltage-dependent proteins that can be activated by inducing membrane voltage changes by applying electric fields. The electrical stimulation instrument and methods of use, referred to as E-VIPR, are described in International Publication No. WO 2002/008748 A3 and C.-J. Huang et al. Characterization of voltage-gated sodium channel blockers by electrical stimulation and fluorescence detection of membrane potential, 24 Nature Biotech. 439-46 (2006), both of which are incorporated by reference in their entirety. The instrument comprises a microtiter plate handler, an optical system for exciting the coumarin dye while simultaneously recording the coumarin and oxonol emissions, a waveform generator, a current- or voltage-controlled amplifier, and parallel electrode pairs that are inserted into assay plate wells. Under integrated computer control, this instrument passes user-programmed electrical stimulus protocols to cells within the wells of the microtiter plate.
16-20 hours prior to running the assay on E-VIPR, HEK cells expressing a truncated form of human Nav 1.8 with full channel activity were seeded into microtiter 384-well plates, pre-coated with matrigel, at a density of 25,000 cells per well. 2.5-5% KIR2.1 Bacmam virus was added to the final cell suspension before seeding into cell plates. HEK cells were grown in Dulbecco's Modified Eagle's Medium (DMEM) supplemented with 10% FBS (Fetal Bovine Serum, qualified; Sigma #F4135), 1% NEAA (Non-Essential Amino Acids, Gibco #11140), 1% HEPES (Gibco #15630), 1% Pen-Strep (Penicillin-Streptomycin; Gibco #15140) and 5 μg/ml Blasticidin (Gibco #R210-01). Cells were expanded in vented cap cell culture flasks, with 90-95% humidity and 5% CO2.
Human Serum (HS, Millipore #S1P1-01KL, or Sigma SLBR5469V and SLBR5470V as a 50%/50% mixture, for 25% assay final concentration)
Bath1 Buffer: • Sodium Chloride 160 mM (9.35 g/L), Potassium Chloride, 4.5 mM (0.335 g/L), Glucose 10 mM (1.8 g/L), Magnesium Chloride (Anhydrous) 1 mM (0.095 g/L), Calcium Chloride 2 mM (0.222 g/L), HEPES 10 mM (2.38 g/L) in water.
Na/TMA Cl Bath1 Buffer: • Sodium Chloride 96 mM (5.61 g/L), Potassium Chloride 4.5 mM (0.335 g/L), Tetramethylammonium (TMA)-Cl 64 mM (7.01 g/L), Glucose 10 mM (1.8 g/L), Magnesium Chloride (Anhydrous) 1 mM (0.095 g/L), Calcium Chloride 2 mM (0.222 g/L) HEPES 10 mM (2.38 g/L) in water.
Hexyl Dye Solution (2× concentration): • Bath1 Buffer containing 0.5% β-cyclodextrin (made fresh prior to each use, Sigma #C4767), 8 μM CC2-DMPE and 2 μM DiSBAC6(3). The solution was made by adding 10% Pluronic F127 stock equal to combined volumes of CC2-DMPE and DiSBAC6(3). The order of preparation was first mix Pluronic and CC2-DMPE, then add DiSBAC6(3), then while vortexing add Bath1/β-Cyclodextrin.
Compound Loading Buffer (2×concentration): Na/TMA Cl Bath1 Buffer containing HS (omitted in experiments run in the absence of human serum (HS)) 50%, VABSC-1 1 mM, BSA 0.2 mg/ml (in Bath-1), KCl 9 mM, DMSO 0.75%.
Assay Protocol (7 Key Steps): • 1) To reach the final concentration in each well, 400 nL of each compound was pre-spotted (in neat DMSO) into polypropylene compound plates at 250×desired final concentration from an intermediate stock concentration of 0.075 mM, in an 11 point dose response, 3-fold dilution, resulting in a top dose of 300 nM final concentration in the cell plate. Vehicle control (neat DMSO), and positive control (an established Nav1.8 inhibitor, 25 μM final in assay in DMSO) were added manually to the outermost columns of each plate respectively. The compound plate was backfilled with 45 μL per well of Compound Loading Buffer resulting in a 250 fold dilution of compound following a 1:1 transfer of compound into the cell plate (see Step 6). Final DMSO concentration for all wells in the assay was 0.625% (0.75% DMSO was supplemented to the Compound Loading Buffer for a final DMSO concentration of 0.625%). […]

[1] = in the Presence of Human Serum in the E-VIPR Assay
[2] = in the Absence of Human Serum in the E-VIPR Assay

human Nav 1.8, sequence (Q9Y5Y9 whole entry, looked up, the tested form may be a part): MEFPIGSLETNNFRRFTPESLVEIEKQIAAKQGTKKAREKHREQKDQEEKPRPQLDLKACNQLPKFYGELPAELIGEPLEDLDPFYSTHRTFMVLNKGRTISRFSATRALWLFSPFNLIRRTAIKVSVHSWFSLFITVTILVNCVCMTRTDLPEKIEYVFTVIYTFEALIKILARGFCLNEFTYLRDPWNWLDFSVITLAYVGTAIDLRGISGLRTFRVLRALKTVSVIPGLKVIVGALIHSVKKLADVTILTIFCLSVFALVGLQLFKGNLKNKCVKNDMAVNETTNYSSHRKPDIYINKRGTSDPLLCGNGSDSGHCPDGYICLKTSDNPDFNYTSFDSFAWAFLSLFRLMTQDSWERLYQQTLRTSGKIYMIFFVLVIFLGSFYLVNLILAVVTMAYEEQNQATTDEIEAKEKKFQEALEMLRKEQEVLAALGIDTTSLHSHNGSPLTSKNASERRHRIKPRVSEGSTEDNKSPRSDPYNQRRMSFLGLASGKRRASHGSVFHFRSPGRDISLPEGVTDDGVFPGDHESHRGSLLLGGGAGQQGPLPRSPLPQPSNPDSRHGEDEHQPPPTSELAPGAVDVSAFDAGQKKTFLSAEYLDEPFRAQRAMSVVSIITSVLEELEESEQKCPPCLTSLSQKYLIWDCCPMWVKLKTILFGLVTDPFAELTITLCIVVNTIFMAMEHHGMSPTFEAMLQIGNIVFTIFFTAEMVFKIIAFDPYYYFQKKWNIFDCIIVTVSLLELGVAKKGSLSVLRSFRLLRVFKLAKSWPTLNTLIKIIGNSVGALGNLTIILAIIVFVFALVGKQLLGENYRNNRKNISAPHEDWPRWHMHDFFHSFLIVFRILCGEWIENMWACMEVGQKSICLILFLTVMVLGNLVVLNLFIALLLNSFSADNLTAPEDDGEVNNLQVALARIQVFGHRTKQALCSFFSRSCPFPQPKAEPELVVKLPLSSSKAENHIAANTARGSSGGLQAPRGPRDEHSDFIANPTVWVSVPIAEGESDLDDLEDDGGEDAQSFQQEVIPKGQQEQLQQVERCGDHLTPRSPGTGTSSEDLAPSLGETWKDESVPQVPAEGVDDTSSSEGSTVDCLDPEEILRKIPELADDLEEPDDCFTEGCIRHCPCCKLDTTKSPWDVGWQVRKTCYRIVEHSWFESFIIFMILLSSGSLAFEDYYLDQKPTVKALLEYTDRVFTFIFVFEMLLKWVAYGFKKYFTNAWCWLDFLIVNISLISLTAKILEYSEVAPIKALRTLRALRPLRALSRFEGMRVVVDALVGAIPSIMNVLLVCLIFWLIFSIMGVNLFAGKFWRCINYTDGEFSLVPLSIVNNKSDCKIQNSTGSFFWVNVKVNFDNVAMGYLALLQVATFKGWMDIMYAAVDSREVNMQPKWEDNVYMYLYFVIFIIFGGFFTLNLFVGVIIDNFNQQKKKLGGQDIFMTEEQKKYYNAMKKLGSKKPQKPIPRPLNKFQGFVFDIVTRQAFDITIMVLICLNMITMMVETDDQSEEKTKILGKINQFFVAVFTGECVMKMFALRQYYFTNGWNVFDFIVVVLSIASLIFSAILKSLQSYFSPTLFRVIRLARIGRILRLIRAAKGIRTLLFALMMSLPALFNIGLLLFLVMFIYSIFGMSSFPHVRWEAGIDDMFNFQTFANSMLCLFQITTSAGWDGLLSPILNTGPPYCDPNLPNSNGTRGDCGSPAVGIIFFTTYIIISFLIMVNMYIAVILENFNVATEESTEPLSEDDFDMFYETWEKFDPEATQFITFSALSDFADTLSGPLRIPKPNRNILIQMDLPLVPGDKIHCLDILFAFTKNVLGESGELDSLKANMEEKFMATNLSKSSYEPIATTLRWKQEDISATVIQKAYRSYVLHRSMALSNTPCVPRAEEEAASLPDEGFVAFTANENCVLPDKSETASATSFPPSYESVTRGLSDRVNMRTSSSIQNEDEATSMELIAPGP

Work on `COc1c([C@@H]2[C@@H](C(=O)Nc3ccnc(C(N)=O)c3)O[C@](C)(C(F)(F)F)[C@@H]2C2CC2)ccc(F)c1F` (single isomer, unassigned) [Compound 94] yielded an IC50 [1] of under 10 nM.
`COc1c([C@H]2[C@H](C(=O)Nc3ccnc(C(N)=O)c3)O[C@@](C)(C(F)(F)F)[C@H]2C2CC2)ccc(F)c1F` (single isomer, unassigned) [Compound 95] was tested, and the IC50 [1] was over 1000 nM.
Work on `COc1c([C@@H]2[C@@H](C(=O)Nc3ccnc(C(N)=O)c3)OC(C)(C)[C@H]2C)ccc(F)c1F` (single isomer, unassigned) [Compound 101] yielded an IC50 [1] of over 1000 nM.
In the case of `COc1c([C@@H]2[C@@H](C)C(C)(C)O[C@H]2C(=O)Nc2ccnc(C(N)=O)c2)ccc(F)c1F` (single isomer, unassigned) [Compound 102], the IC50 [1] is reported as over 1000 nM.
`COc1c([C@@H]2[C@@H](C)C(C)(C)O[C@H]2C(=O)Nc2ccnc(C(N)=O)c2)ccc(F)c1F` (single isomer, unassigned) [Compound 103] showed an IC50 [1] of over 1000 nM.
`COc1c([C@@H]2[C@@H](C(=O)Nc3ccnc(C(N)=O)c3)OC(C)(C)[C@H]2C)ccc(F)c1F` (single isomer, unassigned) [Compound 104] was tested, and the IC50 [1] was over 1000 nM.
`COc1c([C@H]2[C@H](C(=O)Nc3ccnc(C(N)=O)c3)OC(C)(C)[C@H]2C)ccc(F)c1F` (single isomer, unassigned) [Compound 105] gave an IC50 [1] of 10 to 100 nM.
For `COc1c([C@@H]2[C@@H](C(=O)Nc3ccnc(C(N)=O)c3)OC(C)(C)[C@@H]2C)ccc(F)c1F` (single isomer, unassigned) [Compound 106], the IC50 [1] was over 1000 nM.
With `COc1c([C@H]2C[C@@H](C(F)(F)F)O[C@@H]2C(=O)Nc2ccnc(C(N)=O)c2)ccc(F)c1C` (single isomer, unassigned) [Compound 111] the IC50 [1] was over 1000 nM.
`COc1c([C@@H]2C[C@H](C(F)(F)F)O[C@H]2C(=O)Nc2ccnc(C(N)=O)c2)ccc(F)c1C` (single isomer, unassigned) [Compound 112] was tested, and the IC50 [1] was 100 to 1000 nM.
Compound `COc1c([C@@H]2[C@@H](C(=O)Nc3ccnc(C(N)=O)c3)O[C@](C)(C(F)(F)F)[C@@H]2C)ccc(C(F)F)c1F` (single isomer, unassigned) [Compound 135] has an IC50 [2] of over 1000 nM.
With `COc1c([C@H]2[C@H](C(=O)Nc3ccnc(C(N)=O)c3)O[C@@](C)(C(F)(F)F)[C@H]2C)ccc(C(F)F)c1F` (single isomer, unassigned) [Compound 136] the IC50 [2] was under 10 nM.
`COc1c([C@H]2[C@H](C(=O)Nc3ccnc(C(N)=O)c3)O[C@@](C)(C(F)(F)F)[C@H]2C)cccc1C(F)(F)F` (single isomer, unassigned) [compound 42] gave an IC50 [2] of under 10 nM.
`COc1c([C@@H]2[C@@H](C(=O)Nc3ccnc(C(N)=O)c3)O[C@](C)(C(F)(F)F)[C@@H]2C)cccc1C(F)(F)F` (single isomer, unassigned) [compound 43] showed an IC50 [2] of 100 to 1000 nM.
Work on `C[C@@H]1[C@H](c2ccc(F)c(F)c2OC(F)F)[C@@H](C(=O)Nc2cccc(C(N)=O)c2)O[C@]1(C)C(F)(F)F` (single isomer, unassigned) [compound 51] yielded an IC50 [1] of over 1000 nM.
For `C[C@H]1[C@@H](c2ccc(F)c(F)c2OC(F)F)[C@H](C(=O)Nc2cccc(C(N)=O)c2)O[C@@]1(C)C(F)(F)F` (single isomer, unassigned) [compound 52], the IC50 [1] was under 10 nM.
For `C[C@@H]1[C@H](c2ccc(F)cc2OC(F)F)[C@@H](C(=O)Nc2ccnc(C(N)=O)c2)O[C@]1(C)C(F)(F)F` (stereo in doubt) [Compound 1, rel-(2S,3R,4R,5S)-4-[[3-[2-(difluoromethoxy)-4-fluoro-phenyl]-4,5-dimethyl-5-(trifluoromethyl)tetrahydrofuran-2-carbonyl]amino]pyridine-2-carboxamide], the IC50 [1] was 10 to 100 nM.
`C[C@H]1[C@@H](c2ccc(F)cc2OC(F)F)[C@H](C(=O)Nc2ccnc(C(N)=O)c2)O[C@@]1(C)C(F)(F)F` (stereo in doubt) [Compound 2, rel-(2R,3S,4S,5R)-4-[[3-[2-(difluoromethoxy)-4-fluoro-phenyl]-4,5-dimethyl-5-(trifluoromethyl)tetrahydrofuran-2-carbonyl]amino]pyridine-2-carboxamide] gave an IC50 [1] of 100 to 1000 nM.
Work on `COc1c([C@H]2C[C@@](C)(C(F)(F)F)O[C@@H]2C(=O)Nc2ccnc(C(N)=O)c2)ccc(F)c1F` (stereo in doubt) [Compound 4, rel-(2S,3R,5S)-4-[[3-(3,4-difluoro-2-methoxy-phenyl)-5-methyl-5-(trifluoromethyl)tetrahydrofuran-2-carbonyl]amino]pyridine-2-carboxamide] yielded an IC50 [1] of over 1000 nM.
In the case of `COc1c([C@@H]2C[C@](C)(C(F)(F)F)O[C@H]2C(=O)Nc2ccnc(C(N)=O)c2)ccc(F)c1F` (stereo in doubt) [Compound 5, rel-(2R,3S,5R)-4-[[3-(3,4-difluoro-2-methoxy-phenyl)-5-methyl-5-(trifluoromethyl)tetrahydrofuran-2-carbonyl]amino]pyridine-2-carboxamide], the IC50 [1] is reported as 10 to 100 nM.
`CNC(=O)c1cc(NC(=O)[C@@H]2O[C@](C)(C(F)(F)F)[C@@H](C)[C@H]2c2ccc(F)c(F)c2OC(F)F)ccn1` (stereo in doubt) [Compound 12, rel-(2R,3S,4S,5S)-4-[[3-[2-(difluoromethoxy)-3,4-difluoro-phenyl]-4,5-dimethyl-5-(trifluoromethyl)tetrahydrofuran-2-carbonyl]amino]-N-methyl-pyridine-2-carboxamide] was tested, and the IC50 [1] was over 1000 nM.
`CNC(=O)c1cc(NC(=O)[C@H]2O[C@@](C)(C(F)(F)F)[C@H](C)[C@@H]2c2ccc(F)c(F)c2OC(F)F)ccn1` (stereo in doubt) [Compound 13, rel-(2S,3R,4R,5R)-4-[[3-[2-(difluoromethoxy)-3,4-difluoro-phenyl]-4,5-dimethyl-5-(trifluoromethyl)tetrahydrofuran-2-carbonyl]amino]-N-methyl-pyridine-2-carboxamide] gave an IC50 [1] of 10 to 100 nM.
In the case of `Cc1c(F)ccc([C@H]2[C@H](C(=O)Nc3ccnc(C(N)=O)c3)O[C@@](C)(C(F)(F)F)[C@H]2C)c1OC(F)F` (stereo in doubt) [Compound 16, rel-(2R,3S,4S,5R)-4-[[3-[2-(difluoromethoxy)-4-fluoro-3-methyl-phenyl]-4,5-dimethyl-5-(trifluoromethyl)tetrahydrofuran-2-carbonyl]amino]pyridine-2-carboxamide], the IC50 [1] is reported as over 1000 nM.
`Cc1c(F)ccc([C@H]2[C@H](C(=O)Nc3ccnc(C(N)=O)c3)O[C@@](C)(C(F)(F)F)[C@H]2C)c1OC(F)F` (stereo in doubt) [Compound 17, rel-(2R,3S,4S,5R)-4-[[3-[2-(difluoromethoxy)-4-fluoro-3-methyl-phenyl]-4,5-dimethyl-5-(trifluoromethyl)tetrahydrofuran-2-carbonyl]amino]pyridine-2-carboxamide] showed an IC50 [1] of under 10 nM.
In the case of `CC[C@@]1(C(F)(F)F)C[C@H](c2ccc(F)c(F)c2OC)[C@@H](C(=O)Nc2ccnc(C(N)=O)c2)O1` (stereo in doubt) [Compound 63, rel-(2S,3R,5S)-4-[[3-(3,4-difluoro-2-methoxy-phenyl)-5-ethyl-5-(trifluoromethyl)tetrahydrofuran-2-carbonyl]amino]pyridine-2-carboxamide], the IC50 [1] is reported as over 1000 nM.
